From the supplement of paper PMC11208160

experiment: recombinant barcode read abundance after kanamycin selection (control-corrected) (log10(CPM+1)); higher = more efficient recombination; sequences stand for … in AGTGCAGAGAAAATCGGCCAGTTTTCTCTGCCTGCAGTCCGCATGCCGT…AGATTTATGCAGCGGACTGCCTTTCTCCCAAAGTGATAAACCGGACAGTATCATGGACCGGTTTTCCCGGTAATCCGTATTTGCAAGGTTGGTTTCACT; site = the 11-nt target
Method in brief: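 IS621 bridge RNA target-binding loops were paired with targets in a pooled library tested in E. coli. After co-electroporation with a donor plasmid, cells were plated in two replicates on chloramphenicol/ampicillin LB agar (control) and on chloramphenicol/ampicillin/kanamycin carrying 0.1 mM IPTG. Barcodes at recombinant junctions were counted as counts per million, averaged and control-corrected to give recombination efficiency. Values are log10(CPM+1).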
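Also: IS621 recombinase and bridge RNA in Escherichia coli cells.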

Row | Sequence | recombinant barcode read abundance (log10)
1 | CTAGACACTTGGGTTCTAACCTGTTGCGG (site CTGGTCACTCC) | 0.0881
2 | CTAGACCCTTGGGTTCTAACCTGTTGCCT (site ATAGACCCTAG) | 0.347
3 | CTAGACCCTTGGGTTCTAACCTGTTGCCT (site CTAGACCCTAG) | 1.95
4 | CTAGACCCTTGGGTTCTAACCTGTTGCCT (site GTAGACCCTAG) | 0.223
5 | CTAGACCCTTGGGTTCTAACCTGTTGCCT (site TTAGACCCTAG) | 0.0677
6 | CTAGACTCTTGGGTTCTAACCTGTTGCTG (site CTAGACTCTAA) | 0.136
7 | CTAGACTCTTGGGTTCTAACCTGTTGCTG (site CTAGACTCTCA) | 2.73
8 | CTAGACTCTTGGGTTCTAACCTGTTGCTG (site CTAGACTCTGA) | 0.076
9 | CTAGACTCTTGGGTTCTAACCTGTTGCTG (site CTAGACTCTTA) | 0.188
10 | CTAGCCTCTTGGGTTCTAACCTGTTGCAT (site CTAACCTCTAT) | 0.739
11 | CTAGCCTCTTGGGTTCTAACCTGTTGCAT (site CTACCCTCTAT) | 0.582
12 | CTAGCCTCTTGGGTTCTAACCTGTTGCAT (site CTAGCCTCTAT) | 2.38
13 | CTAGCCTCTTGGGTTCTAACCTGTTGCAT (site CTATCCTCTAT) | 0.0542
14 | CTAGCGACTTGGGTTCTAACCTGTTGCTG (site CTAGCCACTTA) | 0
15 | CTAGCGACTTGGGTTCTAACCTGTTGCTG (site CTAGCGACTCA) | 0.287
16 | CTAGGAGCTTGGGTTCTAACCTGTTGCGT (site CTAGAAGCTAC) | 1.84
17 | CTAGGAGCTTGGGTTCTAACCTGTTGCGT (site CTAGGAGCTAC) | 2.12
18 | CTAGGATCTTGGGTTCTAACCTGTTGCGT (site CTAGGATCTAC) | 2.77
19 | CTAGGATCTTGGGTTCTAACCTGTTGCGT (site CTAGTCTCTAC) | 0.152
20 | CTAGGCCCTTGGGTTCTAACCTGTTGCAT (site CTAGGCCCTAA) | 0.379
21 | CTAGGCCCTTGGGTTCTAACCTGTTGCAT (site CTAGGCCCTAC) | 1.97
22 | CTAGGCCCTTGGGTTCTAACCTGTTGCAT (site CTAGGCCCTAG) | 0.318

Row | Sequence | recombinant barcode read abundance (log10)
23 | CTAGGCCCTTGGGTTCTAACCTGTTGCAT (site CTAGGCCCTAT) | 2.77
24 | CTAGTAGCTTGGGTTCTAACCTGTTGCTC (site CTAGTAGCTGA) | 1.74
25 | CTAGTAGCTTGGGTTCTAACCTGTTGCTC (site GTAGCAGCTGA) | 0.331
26 | CTAGTCACTTGGGTTCTAACCTGTTGCAC (site CTAGTCACTGT) | 2.81
27 | CTAGTCACTTGGGTTCTAACCTGTTGCAC (site CTAGTGTCTGT) | 0.0438
28 | CTAGTTGCTTGGGTTCTAACCTGTTGCAA (site CTAATTGCTTT) | 0.0799
29 | CTAGTTGCTTGGGTTCTAACCTGTTGCAA (site CTACTTGCTTT) | 0.229
30 | CTAGTTGCTTGGGTTCTAACCTGTTGCAA (site CTAGTTGCTTT) | 0.328
31 | CTAGTTGCTTGGGTTCTAACCTGTTGCAA (site CTATTTGCTTT) | 0.0786
32 | CTATAGACTTGGGTTCTAACCTGTTGCCA (site CTATAGACTTG) | 0.079
33 | CTATAGACTTGGGTTCTAACCTGTTGCCA (site CTCTAGACTAG) | 0.206
34 | CTATCGACTTGGGTTCTAACCTGTTGCCT (site CTATAGACTAG) | 0.0416
35 | CTATCGACTTGGGTTCTAACCTGTTGCCT (site CTATCGACTAG) | 0.766
36 | CTATCGACTTGGGTTCTAACCTGTTGCCT (site CTATGGACTAG) | 0.163
37 | CTATCGACTTGGGTTCTAACCTGTTGCCT (site CTATTGACTAG) | 0.0575
38 | CTATCGTCTTGGGTTCTAACCTGTTGCCT (site ATATCGTCTAG) | 0.0956
39 | CTATCGTCTTGGGTTCTAACCTGTTGCCT (site CTATCGTCTAG) | 1.22
40 | CTATGCCCTTGGGTTCTAACCTGTTGCTA (site CTATGCCCTTA) | 1.16
41 | CTATGCCCTTGGGTTCTAACCTGTTGCTA (site CTATGCCCTTC) | 0.179
42 | CTATGGACTTGGGTTCTAACCTGTTGCAC (site CTATGGACTAT) | 0.132
43 | CTATGGACTTGGGTTCTAACCTGTTGCAC (site CTATGGACTCT) | 0.242
44 | CTATGGACTTGGGTTCTAACCTGTTGCAC (site CTATGGACTGT) | 1.3

Row | Sequence | recombinant barcode read abundance (log10)
45 | CTATGGACTTGGGTTCTAACCTGTTGCAC (site CTATGGACTTT) | 0.0443
46 | CTATGGACTTGGGTTCTAACCTGTTGCCT (site CTATAGACTAG) | 0.398
47 | CTATGGACTTGGGTTCTAACCTGTTGCCT (site CTATCGACTAG) | 0.196
48 | CTATGGACTTGGGTTCTAACCTGTTGCCT (site CTATGGACTAG) | 0.872
49 | CTATGGACTTGGGTTCTAACCTGTTGCCT (site CTATTGACTAG) | 0.027
50 | CTATTAGCTTGGGTTCTAACCTGTTGCCG (site CTAGTAGCTCG) | 0.418
51 | CTATTAGCTTGGGTTCTAACCTGTTGCCG (site CTATTAGCTCG) | 0.725
52 | CTATTGTCTTGGGTTCTAACCTGTTGCGA (site CTATTGTCTAC) | 0.0206
53 | CTATTGTCTTGGGTTCTAACCTGTTGCGA (site CTATTGTCTCC) | 0.165
54 | CTATTGTCTTGGGTTCTAACCTGTTGCGA (site CTATTGTCTGC) | 0.0565
55 | CTATTGTCTTGGGTTCTAACCTGTTGCGA (site CTATTGTCTTC) | 2.4
56 | CTCAAAGCTTGGGTTCTAACCTGTTGCCG (site CTCAAAGCTCG) | 0.258
57 | CTCAAAGCTTGGGTTCTAACCTGTTGCCG (site TAGTCCACTGC) | 0.196
58 | CTCAAAGCTTGGGTTCTAACCTGTTGCGA (site CTCAAAGCTTC) | 1.38
59 | CTCAAAGCTTGGGTTCTAACCTGTTGCGA (site GGGGTCCCTAA) | 0.189
60 | CTCAAGGCTTGGGTTCTAACCTGTTGCGT (site CTCAAGGCTAC) | 1.6
61 | CTCAAGGCTTGGGTTCTAACCTGTTGCGT (site CTCCAGGCTCC) | 0.128
62 | CTCACACCTTGGGTTCTAACCTGTTGCCT (site ATCACACCTAG) | 0.386
63 | CTCACACCTTGGGTTCTAACCTGTTGCCT (site CTCACACCTAG) | 0.931
64 | CTCACACCTTGGGTTCTAACCTGTTGCTT (site CTCAAACCTAA) | 0.257
65 | CTCACACCTTGGGTTCTAACCTGTTGCTT (site CTCACACCTAA) | 0.328
66 | CTCACGACTTGGGTTCTAACCTGTTGCAG (site CTCACGACTCT) | 0.273

Row | Sequence | recombinant barcode read abundance (log10)
67 | CTCACGACTTGGGTTCTAACCTGTTGCAG (site GAATGAGCTAG) | 0.245
68 | CTCAGGTCTTGGGTTCTAACCTGTTGCCT (site CTCAGGTCTAG) | 1.01
69 | CTCAGGTCTTGGGTTCTAACCTGTTGCCT (site CTCAGGTCTTG) | 0.197
70 | CTCATACCTTGGGTTCTAACCTGTTGCGT (site CTAATACCTAC) | 0.151
71 | CTCATACCTTGGGTTCTAACCTGTTGCGT (site CTCATACCTAC) | 1.92
72 | CTCATAGCTTGGGTTCTAACCTGTTGCGA (site CTCATAGCTTC) | 1.06
73 | CTCATAGCTTGGGTTCTAACCTGTTGCGA (site TGAGGGACTAG) | 0.0808
74 | CTCATGTCTTGGGTTCTAACCTGTTGCTT (site CTCATGTCTAA) | 1.44
75 | CTCATGTCTTGGGTTCTAACCTGTTGCTT (site TTCATGTCTAA) | 0.222
76 | CTCATTCCTTGGGTTCTAACCTGTTGCCT (site CTCATTCCTAA) | 0.0318
77 | CTCATTCCTTGGGTTCTAACCTGTTGCCT (site CTCATTCCTAC) | 0.216
78 | CTCATTCCTTGGGTTCTAACCTGTTGCCT (site CTCATTCCTAG) | 0.129
79 | CTCATTCCTTGGGTTCTAACCTGTTGCCT (site CTCATTCCTAT) | 0.0571
80 | CTCCAAGCTTGGGTTCTAACCTGTTGCCT (site CTACAAGCTAG) | 0.105
81 | CTCCAAGCTTGGGTTCTAACCTGTTGCCT (site CTCCAAGCTAG) | 0.665
82 | CTCCAAGCTTGGGTTCTAACCTGTTGCCT (site CTGCAAGCTAG) | 0.0619
83 | CTCCAAGCTTGGGTTCTAACCTGTTGCCT (site CTTCAAGCTAG) | 0.0961
84 | CTCCAATCTTGGGTTCTAACCTGTTGCCT (site CTCCAATCTAG) | 0.666
85 | CTCCAATCTTGGGTTCTAACCTGTTGCCT (site CTCCTATCTAG) | 0.113
86 | CTCCAGCCTTGGGTTCTAACCTGTTGCGG (site CTCCAACCTCC) | 0.411
